Experimental findings from patent US20160158330A1, “METHODS OF PREPARATION AND COMPOSITION OF PEPTIDE CONSTRUCTS USEFUL FOR TREATMENT OF RHEUMATOID ARTHRITIS” (CEL-SCI CORPORATION, priority 2013, published 2016) are described below.

Entries after “also recorded” stand apart in the source; their conditions may differ. Where no end group is shown, it is not given here. [ ]: non-standard residue; d: D form. Cit = NC(=O)NCCC[C@H](N)C(=O)O

The test system of one assay is IFNγ:IL-4. In words: T cell polarization by Th1:Th2 cytokine (IFNγ:IL-4) ratio, ELISA. The note with it: 5 μM peptide, splenocytes of PGIA BALB/c mice; baseline ratio around 3.2. In kind it is cell-based. Here is the method:
(§1) FIG. 3 illustrates T cell proliferation and T cell polarization (TH1:TH2) induced by P70, DerG-PG70 and J-PG70 peptides (Panel A). […] Panel B) T cell polarization by Th1:Th2 cytokine (IFNγ:IL-4) ratios. […] It is noted that these two responses are mutually exclusive. Amounts of IFNγ and IL-4 in culture fluid samples were determined by ELISA (enzyme-linked immunosorbent assay, a common test that uses antibodies and color change to measure protein amounts). The “baseline” value for this ratio, i.e., the value of this ratio in untreated (unpolarized) T cells, is around 3.2 (the black bar, “None,” in FIG. 3B). An increased ratio indicates relatively more IFNγ and/or less IL-4, which in turn indicates a shift towards a Th1 response and away from a Th2 response. A decreased value (below 3.2) indicates relatively more IL-4 and/or less IFNγ and thus a shift towards a Th2 response and away from a Th1 response. Cells were isolated from spleens by gently pushing the organ through a wire cell sieve mesh screen with a sterile 5 cc syringe plunger. The spleens were from BALB/c retired female breeder mice with PGIA (n=3), cultured individually for 5 days in the absence (None) or presence of the different designated peptides (5 μM each) on PG protein (10 m). As has been previously shown, the only cell type incorporating tritiated [^3H]thymidine into DNA are T cells. Therefore, proliferation of splenic T cells was measured in 96 well plates by use of [^3H]thymidine ([…]; specific activity: 2 Ci/mmol, Amersham, Arlington Heights, Ill.) incorporation from day 4 to 5 and expressed as a stimulation index based on the counts per minute normalized to the untreated control (panel A). Treatments were done in triplicate wells for the proliferation assay, and identical triplicate wells were used to harvest culture fluid at 48 hours for cytokine assays. The amounts of IFNγ (a Th1 cytokine) and IL-4 (a Th2 cytokine) in the media of the same cultures were determined by ELISA and expressed as ratios.
(§2) The effect of L.E.A.P.S. conjugates on T cell responses is shown in this example. J-PG70 conjugates modulated the proliferation of T cells isolated from spleen or lymph-node cells from wild type BALB/c mice with PGIA or naïve, PG-TCR-transgenic BALB/c mice.
(In an ELISA, binding on a coated surface is turned into a signal by an enzyme label.)

Assay [1] concerns splenic T cells from BALB/c mice with PGIA. The assay is described as follows: Splenic T cell proliferation, [3H]thymidine incorporation (stimulation index). The format is cell-based. To be noted: 5 μM peptide, splenocytes of PGIA BALB/c mice, p<0.05. Here is the method:
as §1, §2
(Incorporation of labelled thymidine or its analogues reports DNA synthesis.)

Assay [2] has as its system ankle (tibio-talar) joints. The assay is described as follows: Histology of ankle (tibio-talar) joints of vaccinated PGIA mice. In kind it is in vivo. The note with it: PGIA mice 36 days after treatment, conjugate in adjuvant. The source says: Histology of ankle (tibio-talar) joints are shown in (A) normal mice and in (B-D) PGIA mice 36 days after undergoing treatment with L.E.A.P.S. conjugates. The normal joint is characterized by smooth cartilage surfaces on the tibia (Ti) and talus (Ta), inflammatory cell-free joint cavity (JC) and synovial tissue (ST). The ST is lined by a thin layer of cells and contains mainly fat tissue. Ankle joints from mice with PGIA shown in (B), treated with PBS in adjuvant, show evidence of synovial thickening (hyperplasia), inflammatory cell accumulation in the JC and ST, as well as partial erosion of cartilage surface (arrows).
(§3) The joint sections were stained with hematoxylin and eosin. One representative section per group is shown. […] Protection was associated with reduced PG-specific T cell proliferation.

The test system of assay [3] is Th1, Th2, Th17, and regulatory T cells (Tregs). In words: Proportions of Th1, Th2, Th17 and Tregs in spleen cell cultures from vaccinated mice (flow cytometry). To be noted: spleen cell cultures from vaccinated PGIA mice, n=4 mice/group. The format is in vivo. How it is done: The proportions of Th1, Th2, Th17, and regulatory T cells (Tregs) in spleen cell cultures from the vaccinated mice were determined by flow cytometry. Protection was associated with decreased proportions of Th1 and Th17 cells, and increases in Th2 cells and Tregs (p<0.05-0.001, Fisher's LSD test; n=4 mice/group). […] This is similar to the pattern of cytokines secreted by the cells.
In this example, the effects of L.E.A.P.S.-PG peptide conjugate vaccination on the proportions of splenic Th1, Th2, Th17, and regulatory T cells (Tregs) are shown in FIG. 8. The proportions of Th1, Th2, Th17, and regulatory T cells (Tregs) in spleen cell cultures from the vaccinated mice were determined by flow cytometry. Protection was associated with decreased proportions of Th1 and Th17 cells, and increases in Th2 cells and Tregs (p<0.05-0.001, Fisher's LSD test; n=4 mice/group).
For orientation: Flow cytometry measures light scatter and fluorescence of single cells or particles in a stream.

The next assay relates to spleen cells. The assay is described as follows: PG-specific spleen cell proliferation of vaccinated PGIA mice (in vitro assay). In kind it is in vivo. The note with it: cells from vaccinated PGIA mice, in vitro stimulation.
Description: as §3

In assay [4] the test system is proteoglycan-induced arthritis (PGIA). The assay is described as follows: L.E.A.P.S. peptide vaccination of PGIA mice, AI scores. The format is in vivo. To be noted: n=8 mice/group. The source says:
In this example, in vivo experiments of efficacy and protection are shown in FIG. 4, which indicates groups from a first study of efficacy of vaccine candidates, and related controls.

The test system of another assay is IL-12p40. In words: Intracellular expression of IL-12p40 by DCs (flow cytometry). The format is cell-based, BALB/c mice. Here is the method: FIG. 2 illustrates the effects of L.E.A.P.S.-PG conjugates on intracellular expression of IL-12p40 by DCs. DCs from BALB/c female retired breeder normal mice (n=3), having no PGIA disease (generated from bone marrow as described under FIG. 1) were incubated for 24 hours with the indicated peptides (5 μM each) at a cell density of 1×10^6 DCs/mL. DCs not receiving treatment (None) or treated with LPS (1 μg/ml) served as negative and positive controls, respectively. At the end of treatment, DCs were harvested and incubated with 1 μg/mL monensin (GolgiStop, BD Biosciences) for 4 hours to prevent cytokine secretion. Surface staining of DCs was done with fluoresecein isothiocyanate-(FITC) conjugated anti-CD11c antibody. The cells were then fixed and permeabilized using BD Biosciences' Cytofix/Cytoperm Kit. Intracellular IL-12 was detected with a phycoerythrin-(PE) labeled antibody to mouse IL-12p40 (eBioscience). Flow cytometry was carried out as described above. The number of IL-12p40+DCs was determined by gating on CD11c+ cells, and the results expressed as the % of IL-12p40+ of all CD11c+DCs. […] The error bars represent ±SEM.

The test system of the next assay is Bone marrow-derived DCs. In words: DC maturation in vitro: MHC class II and CD86 expression by flow cytometry. To be noted: 5 μM peptide, 24 hours, bone marrow-derived DCs of naïve BALB/c mice. The format is cell-based. Here is the method: FIG. 1 illustrates the effects of PG and L.E.A.P.S.-PG conjugates on DC maturation as indicated by MHC class II and CD86 expression (left and right panels respectively) following treatment (24 hours). […] MFI: mean fluorescence intensity (arbitrary units). […]
To generate DCs, the bone marrow cells were cultured for 9 days in the presence of recombinant mouse granulocyte-macrophage colony stimulating factor (GM-CSF, Sigma-Aldrich, St Louis, Mo.) at a dose of 200 U/ml (Egelston C., Kurko J., Besenyei T. et al. (2012) Suppression of dendritic cell maturation and T cell proliferation by synovial fluid myeloid cells from mice with autoimmune arthritis. Arthritis Rheum 64: 3179-3188). […] After the 24-hour culture with the indicated stimulants, the cells were washed with PBS containing 0.5% bovine serum albumin and 0.01% sodium azide (fluorescence activated cell sorter (FACS) buffer). […]

Turning to “ATEGRVRVNSAYQDK (listed as Homo Sapiens) [PG70, proteoglycan aggrecan (G1) residues 70-84, reference compound]”, in the assay with IFNγ:IL-4, the “T cell polarization, Th1:Th2 cytokine (IFNγ:IL-4) ratio versus untreated” value is “significantly skewed towards a Th1 response”. Also, in assay [1], the “T cell proliferation rate (stimulation index) versus untreated” value was “significantly increased”.

On to “DGQEEKAGVVSTGLIGGGATEGRVRVNSAYQDK (Heteroconjugate Construct) [DerG-PG70]”, for which, in assay [2], the “Histology of ankle joints (synovial hyperplasia, cell infiltration, cartilage erosion)” value is given as “only mild ST hyperplasia as shown in (D), but no cell infiltration or cartilage damage”. Further, the “T cell polarization, Th1:Th2 cytokine (IFNγ:IL-4) ratio versus untreated” value with IFNγ:IL-4 is reported as “significant shift towards Th2; also recorded: significantly skewed towards a Th2 response”. For the same substance, the “Immune deviation (proportions of Th1, Th2, Th17, Tregs)” value in assay [3] was “inducing immune deviation in favor of Th2 and Treg cells”. In addition, in assay [1], the “T cell proliferation rate (stimulation index) versus untreated” value is recorded as “no significant difference”. Further, the “PG-specific spleen cell proliferation” value in the assay with spleen cells was “much less responsive”. Besides, the “Day from which difference from the other groups became statistically significant” value in assay [4] (p<0.05 repeated measures ANOVA) is ~12 days. For the same substance, the “Disease severity (AI scores)” value in assay [4] (vaccine in adjuvant) is on record as “dramatically suppressed; also recorded: therapeutically effective”.

Turning to “DLLKNGERIEKVEGGGATEGRVRVNSAYQDK (Heteroconjugate Construct) [J-PG70, L.E.A.P.S. heteroconjugate of ICBL Peptide J linked to PG70 through a triglycine linker]”, the “T cell polarization, Th1:Th2 cytokine (IFNγ:IL-4) ratio versus untreated” value in the assay with IFNγ:IL-4 is “significantly skewed towards a Th1 response”. The “T cell proliferation rate (stimulation index) versus untreated” value in assay [1] is “higher T cell proliferation as compared to PG70; also recorded: significantly increased”. The “IL-12 intracellular expression in matured DCs” value with IL-12p40 (24 hours of incubation) is recorded as “modulated the IL-12 intracellular expression”. The “DC maturation (MHC class II and CD86 surface marker expression)” value in the assay on Bone marrow-derived DCs is “led to matured dendritic cells”.

“DLLKNGERIEKVEGGGATEG(Cit)VRVNSAYQDK (DLLKNGERIEKVEGGGATEG[Cit]VRVNSAYQDK) [J-PG70Cit]”: the “T cell polarization, Th1:Th2 cytokine (IFNγ:IL-4) ratio versus untreated” value with IFNγ:IL-4 is on record as “significant shift towards Th1; also recorded: significantly skewed towards a Th1 response”. Also, the “T cell proliferation rate (stimulation index) versus untreated” value in assay [1] is “significantly increased”. Besides, the “% of IL-12p40+ of all CD11c+ DCs” value with IL-12p40 (peptide 5 μM, 24 hours, untreated group 3.8%) came out at 7.3%.
